≈ marks a conversion by molar mass, not a printed value.
Key:
[1] = Removal efficacy test, solvent immersion followed by rinsing with water; details: for Removal Efficacy normalized to trichloroethylene: Solvent-based preservative, water rinsing
Source text: (§1) For our evaluation, a comparative method was used in which removal efficacy (RE) of several alternative solvents are compared with RE value obtained for the industrial standard degreaser, trichloroethylene.
(§2) The removal Efficacy (RE) measures in percentage (%) the degree of removal of organic materials (metal protector and/or solvent) from the surface of metal parts. The removal efficacy test, the grease of ten metallic greased pieces was removed by degreasing process. The standard procedure is carried out by bringing the solvent into contact with ten metal pieces which were previously treated with the metal protector. The metal parts are immersed in the solvent without shaking during 10 minutes in one volume of fresh solvent followed by three consecutive washing cycles by immersion in clean water. The amount of organic material (grease and/or solvent) that was not eliminated by the assayed procedure was determined by direct weight after removal of organic residues from the metallic parts by standard cleaning procedure with trichloroethylene.
Preservative A is a solvent-based preservative Aromatic hydrocarbons are often used in preservative formulations.
(§3) The degreasing efficacy of the LAOC solvent family was studied. These experiments remove the grease of ten greased pieces according to the procedure described before. This experiment was carried out for two different greases and the obtained results are described in table 2.

[2] = as above; details: for Removal Efficacy normalized to trichloroethylene: Cereous preservative, water rinsing
Source text: as §1, §2
Preservative B is a cereous-based preservative.
as §3

[3] = Cytotoxicity, in vitro NRU; assay type: cell-based; details: read-out: Cytotoxicity, in vitro NRU, IC50 (mg/mL). Experimental.
[4] = Fish acute toxicity; details: fish, in vivo; read-out: Fish acute toxicity, experimental, LC50
[5] = tested on: Fish; assay: Fish acute toxicity; details: in vivo
[6] = Reusability of solvent without prior purification
Experimental: as §2
The recovery and reusability of solvents is critical in order to have an economically viable process. The reusability of butyl levulinate (LAOC-4) has been studied for both preservatives. The methodology involved the recovery and reuse of the solvent several times without any prior purification.

[7] = Surface degreasing of metal parts followed by solvent evaporation
[8] = classified by many health authorities, R45 risk phrase; cited from earlier work

Row | Compound | Removal Efficacy normalized to trichloroethylene [1] [%] | Removal Efficacy normalized to trichloroethylene [2] [%] | IC50 [3] [mg/mL] | LC50 [4] [µg/mL] | Ecotoxicity rating (fish acute toxicity and ready biodegradability) [5] | also measured
1 | CCOC(=O)CCC(C)=O [LAOC-2, Ethyl levulinate] | 53.0 | 70.9 | – | – | – | –
2 | CCCOC(=O)CCC(C)=O [LAOC-3, Propyl levulinate] | 79.6 | 81.7 | – | – | – | –
3 | CC(=O)CCC(=O)OC(C)C [LAOC-3i, iso-propyl levulinate] | – | 87.0 | – | – | – | –
4 | CCCCOC(=O)CCC(C)=O [LAOC-4, Butyl levulinate] | 79.0 | 99.9 | 5.7 (≈ 33.1 mM) | < 100 | Low ecotox. | Reusability (values normalized to trichloroethylene = 100) ([6]; Cereous preservative, number of cycles 1): 98.0; Reusability (values normalized to trichloroethylene = 100) ([6]; Cereous preservative, number of cycles 2): 93.2; Reusability (values normalized to trichloroethylene = 100) ([6]; Cereous preservative, number of cycles 4): 93.4; Reusability (values normalized to trichloroethylene = 100) ([6]; Cereous preservative, number of cycles 7): 85.9; Reusability (values normalized to trichloroethylene = 100) ([6]; Cereous preservative, number of cycles 10): 84.6; Reusability (values normalized to trichloroethylene = 100) ([6]; Solvent based preservative, number of cycles 1): 74.4; Reusability (values normalized to trichloroethylene = 100) ([6]; Solvent based preservative, number of cycles 2): 78.2; Reusability (values normalized to trichloroethylene = 100) ([6]; Solvent based preservative, number of cycles 4): 62.2; Reusability (values normalized to trichloroethylene = 100) ([6]; Solvent based preservative, number of cycles 7): 69.7; Removal efficacy (%) ([7]; Ultrasound, 41° C., 10 min, evaporation 23 s at 117° C.): 100%
5 | CC(=O)CCC(=O)OCC(C)C [LAOC-4i, iso-butyl levulinate] | 87.8 | 96.4 | 4.4 (≈ 25.5 mM) | < 100 | Low ecotox. | –
6 | CCCCCOC(=O)CCC(C)=O [LAOC-5, Pentyl levulinate] | 37.7 | 89.3 | 16.6 (≈ 89.1 mM) | < 100 | Low ecotox. | –
7 | CCCCCCOC(=O)CCC(C)=O [LAOC-6, Hexyl levulinate] | – | 56.0 | – | – | – | –
8 | CCCCCCCCOC(=O)CCC(C)=O [LAOC-8, Octyl levulinate] | – | 61.0 | – | – | – | –
9 | ClC=C(Cl)Cl [Trichloroethylene, reference compound] | 100.0 | 100.0 | – | – | – | RE (%) Removal Efficacy ([1]; Preservative A (solvent-based), immersion 10 minutes, three water washing cycles): 94.2%; removal efficacy (RE) ([1]; depending on the nature of the preservative (both preservatives A and B)): 94-98%; RE (%) Removal Efficacy ([2]; Preservative B (cereous-based), immersion 10 minutes, three water washing cycles): 98.1%; Removal efficacy (%) ([7]; Immersion, 20° C., 3 min, evaporation 3 min at 20° C.): 100%; carcinogen classification [8]: probable carcinogen
